Marks after values point to notes of the source that are not given here.
Biological target: T1, Dopamine beta hydroxylase (Homo sapiens, UniProt P09172)
T1 construct: 125 μl of plasma; tissue Instituto Português do Sangue Transplantação; host or cells: human plasma from healthy donors
T1 sequence (P09172 40-617 limits assumed): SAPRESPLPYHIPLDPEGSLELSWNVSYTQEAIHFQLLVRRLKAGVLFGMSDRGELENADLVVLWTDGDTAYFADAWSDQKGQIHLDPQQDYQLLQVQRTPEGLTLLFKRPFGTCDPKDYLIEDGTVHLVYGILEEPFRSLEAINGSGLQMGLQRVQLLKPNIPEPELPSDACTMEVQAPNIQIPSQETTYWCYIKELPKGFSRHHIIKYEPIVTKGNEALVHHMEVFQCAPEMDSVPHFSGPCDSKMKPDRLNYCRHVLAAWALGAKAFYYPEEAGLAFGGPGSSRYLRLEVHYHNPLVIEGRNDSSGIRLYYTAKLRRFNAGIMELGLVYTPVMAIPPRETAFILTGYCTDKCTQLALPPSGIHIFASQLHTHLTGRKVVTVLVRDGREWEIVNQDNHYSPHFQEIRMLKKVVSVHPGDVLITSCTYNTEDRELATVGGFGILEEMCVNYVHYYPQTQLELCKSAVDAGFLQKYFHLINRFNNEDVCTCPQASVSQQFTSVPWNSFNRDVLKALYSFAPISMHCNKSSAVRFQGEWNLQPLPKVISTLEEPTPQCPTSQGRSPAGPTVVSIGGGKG
Experiment: Dopamine beta hydroxylase activity in human plasma
Assay type: biochemical
Conditions: for Plasma (1 μM), activity in % of control: inhibitor 1 μM
Method in brief: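 Octopamine production from tyramine over 45 min at 37° C, measured photometrically at 330 nm after SCX extraction and periodate oxidation against an octopamine standard curve, indicates plasma DβH activity. Compounds tested at final 10, 100 and 1000 nM in human plasma, pH 5.0 cofactor buffer, 10 min preincubation; results as % of control.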

| SMILES | Plasma (0.01 μM), activity in % of control (inhibitor 0.01 μM) | Plasma (0.1 μM), activity in % of control (inhibitor 0.1 μM) | Plasma (1 μM), activity in % of control | Plasma (0.01 μM), activity in % of control, re-test (asterisked) (inhibitor 0.01 μM, re-tested under the same experimental conditions, asterisked data believed to be correct) | Plasma (0.1 μM), activity in % of control, re-test (asterisked) (inhibitor 0.1 μM, re-tested under the same experimental conditions, asterisked data believed to be correct) |
| --- | --- | --- | --- | --- | --- |
| Cc1nnc(NC(=O)Cc2c3n(c(=S)n2C)C[C@H](c2c(F)ccc(Cl)c2F)C3)o1 [Example 349, (S)-2-(6-(3-chloro-2,6-difluorophenyl)-2-methyl-3-thioxo-2,5,6,7-tetrahydro-3H-pyrrolo[1,2-c]imidazol-1-yl)-N-(5-methyl-1,3,4-oxadiazol-2-yl)acetamide] | 72.3 % of control | 12.5 % of control |  |  |  |
| Cl.Fc1cc(F)c(F)c([C@H]2Cc3c(CN4CCCC4)[nH]c(=S)n3C2)c1F [Example 210, (R)-1-(pyrrolidin-1-ylmethyl)-6-(2,3,5,6-tetrafluorophenyl)-2,5,6,7-tetrahydro-3H-pyrrolo[1,2-c]imidazole-3-thione hydrochloride] | 94.6 % of control | 73.5 % of control |  |  |  |
| O=C(Cc1[nH]c(=S)n2c1[C@@H]1C[C@]1(c1cc(Br)ccc1F)C2)N1CCCC1 [Example 70, 2-((5aS,6aR)-5a-(5-bromo-2-fluorophenyl)-3-thioxo-2,3,5,5a,6,6a-hexahydrocyclopropa[3,4]pyrrolo[1,2-c]imidazol-1-yl)-1-(pyrrolidin-1-yl)ethan-1-one] |  | 36.6 % of control | 2.9 % of control |  |  |
| [2H]C([2H])([2H])n1c(CC(=O)N[C@H]2CCOC2)c2n(c1=S)C[C@@]1(c3cc(Br)ccc3F)C[C@@H]21 [Example 461, 2-((5aS,6aR)-5a-(5-bromo-2-fluorophenyl)-2-(methyl-d)-3-thioxo-2,3,5,5a,6,6a-hexahydrocyclopropa[3,4]pyrrolo[1,2-c]imidazol-1-yl)-N—((S)-tetrahydrofuran-3-yl)acetamide] | 45.6 % of control | 6.9 % of control |  |  |  |
| Cn1c(CC(=O)NCC(F)(F)F)c2n(c1=S)C[C@@H](c1c(F)c(F)cc(F)c1F)C2 [Example 315, (R)-2-(2-methyl-6-(2,3,5,6-tetrafluorophenyl)-3-thioxo-2,5,6,7-tetrahydro-3H-pyrrolo[1,2-c]imidazol-1-yl)-N-(2,2,2-trifluoroethyl)acetamide] | 67.0 % of control | 17.0 % of control |  | 94.0* % of control | 53.3* % of control |
| Cn1c(CC(=O)Nc2nccs2)c2n(c1=S)C[C@@H](c1c(F)c(F)cc(F)c1F)C2 [Example 340, (R)-2-(2-methyl-6-(2,3,5,6-tetrafluorophenyl)-3-thioxo-2,5,6,7-tetrahydro-3H-pyrrolo[1,2-c]imidazol-1-yl)-N-(thiazol-2-yl)acetamide] | 87.6 % of control | 27.0 % of control |  |  |  |
| COC[C@@H]1CCCN1C(=O)Cc1c2n(c(=S)n1C)C[C@@H](c1c(F)ccc(F)c1F)C2 [Example 247, 1-((S)-2-(methoxymethyl)pyrrolidin-1-yl)-2-((R)-2-methyl-3-thioxo-6-(2,3,6-trifluorophenyl)-2,5,6,7-tetrahydro-3H-pyrrolo[1,2-c]imidazol-1-yl)ethan-1-one] | 81.7 % of control | 35.9 % of control |  |  |  |
| O=C(NCc1[nH]c(=S)n2c1C[C@@H](c1c(F)ccc(Cl)c1F)C2)C1CCCC1 [Example 221, (S)—N-((6-(3-chloro-2,6-difluorophenyl)-3-thioxo-2,5,6,7-tetrahydro-3H-pyrrolo[1,2-c]imidazol-1-yl)methyl)cyclopentanecarboxamide] | 79.3 % of control | 30.0 % of control |  |  |  |
| CC(C)NC(=O)Cc1[nH]c(=S)n2c1[C@@H]1C[C@]1(c1cc(Cl)ccc1F)C2 [Example 67, 2-((5aS,6aR)-5a-(5-chloro-2-fluorophenyl)-3-thioxo-2,3,5,5a,6,6a-hexahydrocyclopropa[3,4]pyrrolo[1,2-c]imidazol-1-yl)-N-isopropylacetamide] |  | 76.1 % of control | 13.2 % of control |  |  |
| CN(CCc1[nH]c(=S)n2c1C[C@@H](c1c(F)ccc(Cl)c1F)C2)C(=O)c1cccnc1 [Example 226, (S)—N-(2-(6-(3-chloro-2,6-difluorophenyl)-3-thioxo-2,5,6,7-tetrahydro-3H-pyrrolo[1,2-c]imidazol-1-yl)ethyl)-N-methylnicotinamide] | 100.8 % of control | 47.4 % of control |  |  |  |
| Cn1c(CCN2CCCC2)c2n(c1=S)C[C@@H](c1c(F)ccc(F)c1F)C2 [Example 474, (R)-2-methyl-1-(2-(pyrrolidin-1-yl)ethyl)-6-(2,3,6-trifluorophenyl)-2,5,6,7-tetrahydro-3H-pyrrolo[1,2-c]imidazole-3-thione hydrofluoride] | 92.5 % of control | 79.3 % of control |  |  |  |
| Cn1c(CC(=O)NCC#N)c2n(c1=S)C[C@@]1(c3cc(Cl)ccc3F)C[C@@H]21 [Example 304, 2-((5aS,6aR)-5a-(5-chloro-2-fluorophenyl)-2-methyl-3-thioxo-2,3,5,5a,6,6a-hexahydrocyclopropa[3,4]pyrrolo[1,2-c]imidazol-1-yl)-N-(cyanomethyl)acetamide] | 51.9 % of control | 21.1 % of control |  |  |  |
| CN(C(=O)Cc1c2n(c(=S)n1C)C[C@@]1(c3c(F)ccc(Cl)c3F)C[C@@H]21)C1CCOCC1 [Example 443, 2-((5aS,6aR)-5a-(3-chloro-2,6-difluorophenyl)-2-methyl-3-thioxo-2,3,5,5a,6,6a-hexahydrocyclopropa[3,4]pyrrolo[1,2-c]imidazol-1-yl)-N-methyl-N-(tetrahydro-2H-pyran-4-yl)acetamide] | 59.2 % of control | 11.5 % of control |  |  |  |

Second part, the molecule after the results:

| Plasma (0.01 μM), activity in % of control (inhibitor 0.01 μM) | Plasma (0.1 μM), activity in % of control (inhibitor 0.1 μM) | Plasma (1 μM), activity in % of control | Plasma (0.01 μM), activity in % of control, re-test (asterisked) (inhibitor 0.01 μM, re-tested under the same experimental conditions, asterisked data believed to be correct) | Plasma (0.1 μM), activity in % of control, re-test (asterisked) (inhibitor 0.1 μM, re-tested under the same experimental conditions, asterisked data believed to be correct) | SMILES |
| --- | --- | --- | --- | --- | --- |
| 88.5 % of control | 64.7 % of control |  |  |  | O=C(Cc1[nH]c(=S)n2c1C[C@H](c1c(F)ccc(F)c1F)C2)N[C@H]1CCOC1 [Example 370, 2-((R)-6-(2,3,6-trifluorophenyl)-3-thioxo-2,5,6,7-tetrahydro-3H-pyrrolo[1,2-c]imidazol-1-yl)-N—((S)-tetrahydrofuran-3-yl)acetamide] |
| 14.8 % of control | 2.4 % of control |  |  |  | CN(C(=O)Cc1[nH]c(=S)n2c1C[C@@H](c1c(F)ccc(Cl)c1F)C2)C1CCS(=O)(=O)CC1 [Example 163, (S)-2-(6-(3-chloro-2,6-difluorophenyl)-3-thioxo-2,5,6,7-tetrahydro-3H-pyrrolo[1,2-c]imidazol-1-yl)-N-(1,1-dioxidotetrahydro-2H-thiopyran-4-yl)-N-methylacetamide] |
|  | 92.8 % of control | 45.6 % of control |  |  | O=C(O)Cc1[nH]c(=S)n2c1C[C@H](c1cc(F)ccc1F)C2 [Example 14, (R)-2-(6-(2,5-difluorophenyl)-3-thioxo-2,5,6,7-tetrahydro-3H-pyrrolo[1,2-c]imidazol-1-yl)acetic Acid] |
| 112.0 % of control | 79.4 % of control |  |  |  | Fc1ccc(F)c([C@H]2Cc3c(CCN[C@@H]4CCOC4)[nH]c(=S)n3C2)c1F [Example 470] |
| 75.3 % of control | 25.4 % of control |  |  |  | Cn1c(CC(=O)NC2CCOCC2)c2n(c1=S)C[C@H](c1c(F)ccc(F)c1F)C2 [Example 416, (S)-2-(2-methyl-3-thioxo-6-(2,3,6-trifluorophenyl)-2,5,6,7-tetrahydro-3H-pyrrolo[1,2-c]imidazol-1-yl)-N-(tetrahydro-2H-pyran-4-yl)acetamide] |
| 84.6 % of control | 59.4 % of control |  |  |  | Cl.Cn1c(CCNCC2CCOCC2)c2n(c1=S)C[C@@H](c1c(F)ccc(F)c1F)C2 [Example 477, (R)-2-methyl-1-(2-(((tetrahydro-2H-pyran-4-yl)methyl)amino)ethyl)-6-(2,3,6-trifluorophenyl)-2,5,6,7-tetrahydro-3H-pyrrolo[1,2-c]imidazole-3-thione hydrochloride] |
